According to patent US7763578B2, “Preparation of polymeric foams using hydrofluoroether nucleating agents” (3M Innovative Properties Company, priority 2004, dated 2010):

Test: Acute toxicity (acute lethal concentration in air)
Format: in vivo
Conditions: 10,000 ppm is its saturated concentration in air at room temperature
Text: In addition to providing useful performance as nucleating agents, the segregated ethers useful herein can offer additional important benefits in safety of use and in environmental compatibility (e.g., zero ozone depletion potential and low atmospheric lifetime). For example, 3M NOVEC Brand HFE-7500 has low acute toxicity (its acute lethal concentration is greater than 10,000 ppm which is its saturated concentration in air at room temperature). […] Further, polymeric foams produced in accordance with the invention have excellent thermal insulation properties.

For CCOC(F)(C(F)(F)C(F)(F)C(F)(F)F)C(F)(C(F)(F)F)C(F)(F)F (stereo not shown) [3M NOVEC Brand HFE-7500, C3F7CF(OC2H5)CF(CF3)2], the acute lethal concentration was “greater than 10,000 ppm”.
